Data: patent publication US20140011889A1, “Resveratrol-Containing Compositions and Methods of Use for Cardiac-Related Diseases” (Resveratrol Partners, LLC, priority 2010, published 2014)

How the values were obtained:
[1] = tested on: brain tissue; assay: Gene expression in brain tissue; format: in vivo, mice; conditions: mouse brain tissue
Text: Similar effects have been observed in non-heart tissue.

[2] = tested on: cardiomyocytes; assay: Cardiomyocyte apoptosis, TUNEL (Example 6); format: in vivo, Sprague-Dawley rats
Procedure: Cardiomyocyte apoptosis. Immunochemical detection of apoptotic cells was performed using the terminal deoxynucleotidyl transferase-medicated dUTP nick-end labeling (TUNEL) method. Malik et al. […] The sections were incubated with mouse monoclonal antibody recognizing cardiac myosin heavy chain to specifically detect apoptotic cardiomyocytes. The fluorescence staining was viewed with a confocal laser microscope. The number of apoptotic cells was counted and expressed as a percent of the total myocyte population. At the end of each experiment the hearts were either subjected to TTC staining to determine infarct size or TUNEL staining to detect apoptosis.

[3] = tested on: IR rat heart; assay: Isolated working rat heart I/R: cardiac function, infarct size, apoptosis (Example 7); format: in vivo, Sprague-Dawley rats; conditions: resveratrol 5 mg/kg/day or Longevinex 100 mg/kg/day, 21 days
Procedure: Methods. Animals. […] Hattori et al., Am. J. Physiol. Heart. Circ. […] Mukherjee et al., Can. J. Pharmol. […] Isolated working heart preparation and assessment of cardiac function. After completing the feeding protocol, the animals were anesthetized with sodium pentobarbital (80 mg/kg, i.p.) (Abbott Laboratories, North Chicago, Ill., USA), and […] heparin sodium (500 IU/kg, i.v.) (Elkins-Sinn Inc., Cherry Hill, N.J., USA) was used as an anticoagulant. […] At the end of 10 min, baseline cardiac function like heart rate (HR, beats/min), aortic flow (AF, ml/min), coronary flow (CF, ml/min), left ventricular developed pressure (LVDP, mmHg) and first derivative of developed pressure (LVdp/dt, mmHg/sec) were recorded. […] Infarct size was measured according to the TTC method. […] To quantitate the areas of infarct in pixels, standard NIH image program was used. The infarct size was quantified and expressed in pixels. […] The fluorescence staining was viewed with a fluorescence microscope (AXIOPLAN2 IMAGING, Carl Zeiss Microimaging Inc., New York) at […] for green fluorescence of fluorescein and at 620 nm for red fluorescence of propidium iodide. The number of apoptotic cells was counted and expressed as a percent of total myocyte population.

Oc1ccc(/C=C/c2cc(O)cc(O)c2)cc1 [resveratrol, 3,4′,5-trihydroxy-trans-stilbene]
genes with altered expression, treatment and calorie reduced diets, number [1]: 10 genes | cardiomyocyte apoptosis ([2]; 2.5 and 25 mg/kg): significantly reduced | number of apoptotic cardiomyocytes ([2]; above 50 mg/kg): significant increased | cardiac output function (aortic flow, coronary flow, LVDP, LVmax dp/dt) ([3]; 2 hour reperfusion): improved | myocardial infarct size and cardiomyocyte apoptosis ([3]; 2 h reperfusion): reduce
